Experimental data reported in patent US8877716B2, “Peptide derivatives, preparation and uses thereof” (Vect-Horus, priority 2010, dated 2014).

Tests used:
[1] = in vitro; settings: blood
[2] = Demeule et al., 2008; cited from earlier work

Question: Which half-life [1] does the source give for `CSCC[C@@H]1NC(=O)[C@H](N)CSSC[C@@H](C(=O)O)NC(=O)CNC(=O)[C@H](CCCNC(=N)N)NC(=O)[C@H](CC(C)C)NC(=O)[C@H](CCCNC(=N)N)NC(=O)[C@@H]2CCCN2C1=O` [SEQ ID NO: 17] here?
Answer: 3 h

Question: Which “Kin (cerebral transfer coefficient)” value [2] does the source give for transferrin [Tf] here?
Answer: 0.0003 mL/s/g
